What was measured:
[1] = tested on: IL-1β; assay: Western blot of IL-1β in prefrontal cortex brain tissue, acute hypobaric hypoxia model; type: in vivo, cynomolgus monkeys; settings: FIGS. 3A and 3B
Source text: FIG. 3. […] A. Protein expression of inflammatory factors IL-6, IL-1β and TNF-α in the brain tissue of the prefrontal cortex of cynomolgus monkeys; B. Statistics of protein relative gray scan values. NN: Normobaric Normoxia group (N=3); HH: Hypobaric Hypoxia group (N=3); HH+Triol: Hypobaric Hypoxia with Triol administration group (N=3); HH+PROG: Hypobaric Hypoxia with control drug administration group (N=3). The gray value was obtained by scanning with Image Lab software, and the relative value was obtained after normalizing with α-Tubulin. One-way ANOVA analysis and Dunnutt's t test were used to perform statistical tests, and in the latter each group was compared with the HH group, *, p<0.05; **, p<0.01.
1) Preparation of protein samples (see the instructions of M-PER protein lysate): After the cells had been processed for the specified time, the medium was aspirated and then washed with 4° C. pre-chilled PBS (0.01M pH7.2˜7.3) for 3 times. […] 2) BCA protein quantification (see the instructions of BCA protein quantification kit): corresponding components were added to a 96-well detection plate by the ratio of quantification reagent A solution:B solution:ddH2O:protein=100:2:7.5:5, and albumin standards diluted in gradient concentration were added to draw a standard curve. […] After the reaction, the absorbance of each well at a wavelength of 562 nm was detected using a microplate reader. […]

[2] = tested on: Iba1; assay: Immunofluorescence of Iba1 in prefrontal cortex brain tissue, acute hypobaric hypoxia model; type: in vivo, cynomolgus monkeys; settings: FIG. 5
Source text: FIG. 5. […] A. Immunofluorescence imaging of CD163 and Iba-1 in the brain tissue of cynomolgus monkeys. B. Statistics of relative fluorescence intensity of CD163 and Iba-1. C. Correlation analysis of relative fluorescence intensity of CD163 and Iba-1. NN: Normobaric Normoxia group; HH: Hypobaric Hypoxia group; HH+Triol: Hypobaric Hypoxia with Triol administration group; HH+PROG: Hypobaric Hypoxia with progesterone administration group. One-way ANOVA analysis and Dunnutt's t test were used to perform statistical tests, and in the latter each group was compared with the HH group, ***, p<0.001.
The thickness of paraffin sections was 5 μm. For fresh paraffin sections, the sections were dried at 37° C. overnight and then dried at 55° C. for 30 minutes. The sections were quickly placed in xylene for dewaxing. After fully dewaxing with xylene for 10 min for 3 times, absolute ethanol-95% ethanol-90% ethanol-80% ethanol-70% ethanol-50% ethanol-ddH2O were successively used for gradient rehydration. After rehydration, the sections were placed in EDTA antigen repair solution for microwave high temperature repair. After the repair was completed, it was allowed naturally cool down to room temperature. […] NIS-Elements Analysis software was used to analyze the fluorescence intensity of confocal images, which was then normalized with the fluorescence intensity per unit area according to the built-in scale. […]

## C[C@@]12CCCC1C1C[C@@H](O)[C@@]3(O)C[C@@H](O)CC[C@]3(C)C1CC2 (stereo partly drawn) [Triol, 5α-androst-3β,5,6β-triol]
[1]
  expression level of IL-1β: significantly reduced
[2]
  Iba1 expression: down-regulation

From patent publication US11911396B2, “Use of compound in preparation of drug for treating cerebral small vessel disease” (GUANGZHOU CELLPROTEK PHARMACEUTICAL CO., LTD, priority 2017, dated 2024)
